# Reference: the NIST ThermoML archive (doi:10.1016/j.jct.2016.11.032)
# Numbers after ± are expanded uncertainties.
# Assays:
# [1] = Crystal; DTA
# [2] = Molar enthalpy of transition or fusion; settings: Crystal; DSC
compound,measurement,setting,value
CC(C)(C)C(O)(CCc1ccc(Cl)cc1)Cn1cncn1 (configuration not stated) [tebuconazole],Normal melting temperature,[1],100.32 ± 1.1 °C
same,Molar enthalpy of transition or fusion,[2],6.92 ± 0.237 kcal/mol
